# In patent US10227388B2, “Peptides and combination of peptides for use in immunotherapy against non-small cell lung cancer and other cancers” (immatics biotechnologies GmbH, priority 2015, dated 2019):
# Key:
# HLA-A*02:01 = HLA-A*02:01 (Homo sapiens, UniProt P04439, D140Y/D185E/D98H/E176V/E277Q/G131W/G231S/I119V/I121R/I166T/I218V/L300P/L318F/N151K/N90K/P208A/P217A/Q86G/Q94H/R138H/R169H/T345S); test: MHC binding assay (UV-ligand exchange, ELISA, peptide exchange yield); conditions: binding of HLA-class I restricted peptides to HLA-A*02:01
# In short: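 Exchange yield was quantified as stabilized β2m-containing complex: monomers diluted 100-fold bound to streptavidin-coated wells, probed with HRP-conjugated anti-β2m, read at 450 nm after TMB. Complexes had been generated by UV cleavage of a photolabile ligand and replacement with the candidate peptide.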
# CD8+ T cells = test: In vitro immunogenicity: T-cell priming with artificial antigen presenting cells loaded with peptide/MHC complexes and anti-CD28 antibody, multimer readout; assay type: cell-based, human; conditions: for Wells positive [%]: HLA-A*02 restricted peptides, positive wells among evaluable; for in vitro immunogenicity, donors: percentage of positive donors; for in vitro immunogenicity, wells: percentage of positive wells
# Protocol: In an aspect, the peptides are pre-screened for immunogenicity before being included in the warehouse. By way of example, and not limitation, the immunogenicity of the peptides included in the warehouse is determined by a method comprising in vitro T-cell priming through repeated stimulations of CD8+ T cells from healthy donors with artificial antigen presenting cells loaded with peptide/MHC complexes and anti-CD28 antibody.
# In order to obtain information regarding the immunogenicity of the TUMAPs of the present invention, the inventors performed investigations using an in vitro T-cell priming assay based on repeated stimulations of CD8+ T cells with artificial antigen presenting cells (aAPCs) loaded with peptide/MHC complexes and anti-CD28 antibody.
# In order to perform in vitro stimulations by artificial antigen presenting cells loaded with peptide-MHC complex (pMHC) and anti-CD28 antibody, the inventors first isolated CD8+ T cells from fresh HLA-A*02 leukapheresis products via positive selection using CD8 microbeads (Miltenyi Biotec, Bergisch-Gladbach, Germany) of healthy donors obtained from the University clinics Mannheim, Germany, after informed consent.
# PBMCs and isolated CD8+ lymphocytes were incubated in T-cell medium (TCM) until use consisting of RPMI-Glutamax (Invitrogen, Karlsruhe, Germany) supplemented with 10% heat inactivated human AB serum (PAN-Biotech, Aidenbach, Germany), 100 U/ml Penicillin/100 μg/ml Streptomycin (Cambrex, Cologne, Germany), 1 mM sodium pyruvate (CC Pro, Oberdorla, Germany), 20 μg/ml Gentamycin (Cambrex). 2.5 ng/ml IL-7 (PromoCell, Heidelberg, Germany) and 10 U/ml IL-2 (Novartis Pharma, Nürnberg, Germany) were also added to the TCM at this step.
# Generation of pMHC/anti-CD28 coated beads, T-cell stimulations and readout was performed in a highly defined in vitro system using four different pMHC molecules per stimulation condition and 8 different pMHC molecules per readout condition.
# The purified co-stimulatory mouse IgG2a anti human CD28 Ab 9.3 (Jung et al., 1987) was chemically biotinylated using Sulfo-N-hydroxysuccinimidobiotin as recommended by the manufacturer (Perbio, Bonn, Germany). Beads used were 5.6 μm diameter streptavidin coated polystyrene particles (Bangs Laboratories, Illinois, USA).
# pMHC used for positive and negative control stimulations were A*0201/MLA-001 (peptide […] (SEQ ID NO. 664) from modified Melan-A/MART-1) and A*0201/DDX5-001 ([…] from DDX5, SEQ ID NO. 665), respectively.
# 800.000 beads/200 μl were coated in 96-well plates in the presence of 4×12.5 ng different biotin-pMHC, washed and 600 ng biotin anti-CD28 were added subsequently in a volume of 200 μl. Stimulations were initiated in 96-well plates by co-incubating 1×10^6 CD8+ T cells with 2×10^5 washed coated beads in 200 μl TCM supplemented with 5 ng/ml IL-12 (PromoCell) for 3 days at 37° C. Half of the medium was then exchanged by fresh TCM supplemented with 80 U/ml IL-2 and incubating was continued for 4 days at 37° C. This stimulation cycle was performed for a total of three times. For the pMHC multimer readout using 8 different pMHC molecules per condition, a two-dimensional combinatorial coding approach was used as previously described (Andersen et al., 2012) with minor modifications encompassing coupling to 5 different fluorochromes. Finally, multimeric analyses were performed by staining the cells with Live/dead near IR dye (Invitrogen, Karlsruhe, Germany), CD8-FITC antibody clone SK1 (BD, Heidelberg, Germany) and fluorescent pMHC multimers. For analysis, a BD LSRII SORP cytometer equipped with appropriate lasers and filters was used. Peptide specific cells were calculated as percentage of total CD8+ cells. Evaluation of multimeric analysis was done using the FlowJo software (Tree Star, Oreg., USA). In vitro priming of specific multimer+CD8+ lymphocytes was detected by comparing to negative control stimulations. […]
Substance,"Peptide exchange (MHC class I binding score, peptide exchange yield) (HLA-A*02:01)",Wells positive [%] (CD8+ T cells),"in vitro immunogenicity, donors (CD8+ T cells)","in vitro immunogenicity, wells (CD8+ T cells)"
443 (GLWEIENNPTV; listed as Homo sapiens) [compound 443],″+++″ (≥50% = +++),″+″ (<20% = +),,
319 (SLEPQIQPV; listed as Homo sapiens) [compound 319],″++″ (≥20% = ++),″+″ (<20% = +),,
659 (ILFPDIIARA; listed as Homo sapiens) [compound 659],,,+++ (50%-69% = +++),+ (<20% = +)
48 (ALAELYEDEV; listed as Homo sapiens) [compound 48],″+++″ (≥50% = +++),″+″ (<20% = +),,
143 (LLLDITPEI; listed as Homo sapiens) [compound 143],″++++″ (≥75% = ++++),″+″ (<20% = +),,
150 (RLWEEGEELEL; listed as Homo sapiens) [compound 150],″+++″ (≥50% = +++),″+″ (<20% = +),,
648 (LLWGNAIFL; listed as Homo sapiens) [compound 648],,,+++ (50%-69% = +++),++ (20%-49% = ++)
652 (TLWYRAPEV; listed as Homo sapiens) [compound 652],,,++++ (> = 70% = ++++),+++ (50%-69% = +++)
2 (SLLEADPFL; listed as Homo sapiens) [compound 2],″+++″ (≥50% = +++),″+″ (<20% = +),,
118 (KLIDNNINV; listed as Homo sapiens) [compound 118],″+++″ (≥50% = +++),″+″ (<20% = +),,
8 (FTLGNVVGMYL; listed as Homo sapiens) [compound 8],″++++″ (≥75% = ++++),″+″ (<20% = +),,
499 (KIFDIDEAEEGV; listed as Homo sapiens) [compound 499],″++″ (≥20% = ++),″+″ (<20% = +),,
11 (KIFEMLEGV; listed as Homo sapiens) [compound 11],″+++″ (≥50% = +++),″+″ (<20% = +),,
247 (VLLPNDLLEKV; listed as Homo sapiens) [compound 247],″+++″ (≥50% = +++),″+″ (<20% = +),,
79 (SLFIGEKAVLL; listed as Homo sapiens) [compound 79],″+++″ (≥50% = +++),″+″ (<20% = +),,
141 (YLDFSNNRL; listed as Homo sapiens) [compound 141],″++″ (≥20% = ++),″+″ (<20% = +),,
36 (YVLEDLEVTV; listed as Homo sapiens) [compound 36],″++″ (≥20% = ++),″+″ (<20% = +),,

Substance,"Peptide exchange (MHC class I binding score, peptide exchange yield) (HLA-A*02:01)",Wells positive [%] (CD8+ T cells),"in vitro immunogenicity, donors (CD8+ T cells)","in vitro immunogenicity, wells (CD8+ T cells)"
199 (ALQDVPLSSV; listed as Homo sapiens) [compound 199],″+++″ (≥50% = +++),″+″ (<20% = +),,
511 (FLDPYCSASV; listed as Homo sapiens) [compound 511],″++″ (≥20% = ++),″+″ (<20% = +),,
489 (KMWEELPEVV; listed as Homo sapiens) [compound 489],″+++″ (≥50% = +++),″+″ (<20% = +),,
38 (FLLEDDIHVS; listed as Homo sapiens) [compound 38],″+++″ (≥50% = +++),″+″ (<20% = +),,
460 (AMLEKNYKL; listed as Homo sapiens) [compound 460],″++++″ (≥75% = ++++),″+″ (<20% = +),,
663 (KIQEMQHFL; listed as Homo sapiens) [compound 663],,,+++ (50%-69% = +++),+ (<20% = +)
662 (KIQEILTQV; listed as Homo sapiens) [compound 662],,,+++ (50%-69% = +++),+ (<20% = +)
56 (KLYEGIPVLL; listed as Homo sapiens) [compound 56],″++++″ (≥75% = ++++),″+″ (<20% = +),,
384 (ILFANPNIFV; listed as Homo sapiens) [compound 384],″+++″ (≥50% = +++),″+″ (<20% = +),,
113 (GLLPTPLFGV; listed as Homo sapiens) [compound 113],″+++″ (≥50% = +++),″+″ (<20% = +),,
603 (FLIEPEHVNTV; listed as Homo sapiens) [compound 603],″++″ (≥20% = ++),″+″ (<20% = +),,
591 (SMAELDIKL; listed as Homo sapiens) [compound 591],″+++″ (≥50% = +++),,,
596 (ALLDQTKTLAESAL; listed as Homo sapiens) [compound 596],″+++″ (≥50% = +++),,,
512 (SLSEIVPCL; listed as Homo sapiens) [compound 512],″+++″ (≥50% = +++),,,
340 (ALLSMTFPL; listed as Homo sapiens) [compound 340],″++++″ (≥75% = ++++),,,
574 (YLLQEPPRTV; listed as Homo sapiens) [compound 574],″++″ (≥20% = ++),,,
215 (QLINHLHAV; listed as Homo sapiens) [compound 215],″+++″ (≥50% = +++),,,
